Here are results for one molecule from publication PMC11528023, “Transport mechanism and structural pharmacology of human urate transporter URAT1” (Cell Research, 2024).

SMILES strings stand for the structures. pIC50: −log10 of the molar value.

One assay addresses T1, URAT1EM (Homo sapiens, UniProt Q96S37, A280P/A304R/A323S/A335R/D313K/DEL311-312/DEL60-62/G295A/G309E/G331A/G338L/G65T/I63V/INS307H/L287I/L292P/L321M/L328V/L337V/L341F/L64S/M324V/M330S/M343V/P317I/P333E/Q332K/R291K/R301K/R325K/R342C/S329A/T288I/T289K/T314N/T339D/W294Q/W300R).
T1 construct: human URAT1 (residues 3–553), a (GGGGS)3 linker, and C-terminal DARPinoff7; expressed in transfected cells; host or cells: HEK293 cells (ATCC, CRL-3216), transient transfection
T1 sequence (Q96S37 with tags, fused parts or gaps DEL60-62/I63V/L64S/G65T/A280P/L287I/T288I/T289K/R291K/L292P/W294Q/G295A/W300R/R301K/A304R/INS307H/G309E/DEL311-312/D313K/T314N/P317I/L321M/A323S/M324V/R325K/L328V/S329A/M330S/G331A/Q332K/P333E/A335R/L337V/G338L/T339D/L341F/R342C/M343V): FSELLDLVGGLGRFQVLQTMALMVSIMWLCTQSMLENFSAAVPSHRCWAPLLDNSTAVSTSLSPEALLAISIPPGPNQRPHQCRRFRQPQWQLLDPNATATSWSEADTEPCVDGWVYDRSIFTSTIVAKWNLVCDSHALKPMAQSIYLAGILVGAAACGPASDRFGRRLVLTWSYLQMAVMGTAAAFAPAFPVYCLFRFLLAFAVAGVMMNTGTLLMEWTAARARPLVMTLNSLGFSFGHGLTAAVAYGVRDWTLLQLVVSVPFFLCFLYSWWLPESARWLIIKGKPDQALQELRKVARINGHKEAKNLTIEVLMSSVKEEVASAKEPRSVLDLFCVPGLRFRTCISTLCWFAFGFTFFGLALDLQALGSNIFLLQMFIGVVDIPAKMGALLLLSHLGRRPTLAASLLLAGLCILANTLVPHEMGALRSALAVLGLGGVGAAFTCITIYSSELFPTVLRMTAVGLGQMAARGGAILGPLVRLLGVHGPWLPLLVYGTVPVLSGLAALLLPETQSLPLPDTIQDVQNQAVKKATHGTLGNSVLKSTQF
The experiment in a line: 14C-urate uptake in HEK293 cells expressing URAT1EM (cryo-EM construct). The format is cell-based. As to the method:
(§1) Data are shown as mean ± SD; n = 3 biological replicates. In a, b, uptake buffer: 20 mM HEPES pH 7.4, 125 mM sodium gluconate, 4.8 mM potassium gluconate, 1.2 mM monobasic potassium phosphate, 1.2 mM magnesium sulfate, 1.3 mM calcium gluconate, and 5.6 mM glucose. c Cryo-EM density maps of URAT1 in the apo and substrate-bound states. […] Putative lipid densities are in light cyan. d Cryo-EM density maps of URAT1 in the drug-bound states. […] Putative lipid densities are in light cyan. e Diagram of URAT1 topology. ECD, extracellular domain. f Structure of URAT1 in the apo state. g Slice view of URAT1 in the apo state, showing the central cavity and opening to the intracellular side.
(§2) Human embryonic kidney (HEK) 293 cells (ATCC, CRL-3216) were seeded onto poly(D-lysine)-coated 96-well plates at a density of 0.3 × 10^5 cells per well and cultured at 37 °C until reaching approximately 70%–80% confluence. The cells were transiently transfected with plasmids encoding the URAT1 WT or mutants using Lipofectamine 3000 (Invitrogen, L3000001), following the manufacturer’s protocol. The transfected cells were cultured at 37 °C for 12 h. Following this, 10 mM sodium butyrate was added, and the cells were further incubated at 30 °C for an additional 24 h. […]

Another assay deals with T2, URAT1WT (Homo sapiens, UniProt Q96S37).
T2 construct: expressed in transfected cells; host or cells: HEK293 cells (ATCC, CRL-3216), transient transfection with Lipofectamine 3000
T2 sequence (Q96S37 1-553): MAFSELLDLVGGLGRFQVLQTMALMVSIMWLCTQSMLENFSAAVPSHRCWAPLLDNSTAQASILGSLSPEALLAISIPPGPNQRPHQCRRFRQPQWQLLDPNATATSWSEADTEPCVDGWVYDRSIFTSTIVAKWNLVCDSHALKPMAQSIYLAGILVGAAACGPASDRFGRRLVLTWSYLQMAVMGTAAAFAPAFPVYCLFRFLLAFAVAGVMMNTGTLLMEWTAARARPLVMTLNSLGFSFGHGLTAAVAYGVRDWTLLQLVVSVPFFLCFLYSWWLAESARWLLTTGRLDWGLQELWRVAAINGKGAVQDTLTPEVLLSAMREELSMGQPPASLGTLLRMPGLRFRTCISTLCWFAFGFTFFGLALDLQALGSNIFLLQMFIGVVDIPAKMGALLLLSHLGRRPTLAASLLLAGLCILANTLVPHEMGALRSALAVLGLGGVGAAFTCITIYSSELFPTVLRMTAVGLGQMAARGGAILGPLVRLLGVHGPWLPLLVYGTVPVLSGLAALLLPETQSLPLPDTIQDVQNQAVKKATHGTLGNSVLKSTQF
The experiment in a line: 14C-urate uptake inhibition in HEK293 cells expressing WT URAT1. Type of assay: cell-based. How it is done:
as §1, §2

By pIC50 is commonly meant the IC50 on a negative log10 scale, so that one unit is a factor of ten. A higher pIC50 goes with a low IC50.

Turning to `O=C(c1cc(Cl)c(O)c(Cl)c1)N1CS(=O)(=O)c2ccccc21` [dotinurad], the pIC50 is 6.72 against URAT1EM and 6.77 on URAT1WT.
